{"source": "patent US11099176B2", "about": "(priority 2015, dated 2021)", "type_in_all_cases": "binding", "key": {"[1]": {"test_system": "Marinobacter sp. msLacBP6 variant 187C, D220E, SEQ ID NO: 56, Badan conjugate", "assay": "Fluorescence titration of conjugate (affinity tuning)", "design": "key to appKd (alanine): nb: no binding"}, "[2]": {"test_system": "Marinobacter sp. msLacBP6 variant 187C, F68M, SEQ ID NO: 50, Acrylodan conjugate", "assay": "Fluorescence titration of conjugate (affinity tuning)", "design": "key to appKd (alanine): nb: no binding"}, "[3]": {"test_system": "Marinobacter sp. msLacBP6 variant 187C, F68L, SEQ ID NO: 49, Acrylodan conjugate", "assay": "Fluorescence titration of conjugate (affinity tuning)", "design": "key to appKd (alanine): nb: no binding"}, "[4]": {"test_system": "Marinobacter sp. msLacBP6 variant 187C, L70I, SEQ ID NO: 52, Badan conjugate", "assay": "Fluorescence titration of conjugate (affinity tuning)", "design": "key to appKd (alanine): nb: no binding"}, "[5]": {"test_system": "Marinobacter sp. msLacBP6 variant 187C, F68L, SEQ ID NO: 49, Badan conjugate", "assay": "Fluorescence titration of conjugate (affinity tuning)", "design": "key to appKd (alanine): nb: no binding"}, "[6]": {"test_system": "Marinobacter sp. msLacBP6 conjugates (variants of Table 5)", "assay": "Affinity summary of msLacBP6 single-cysteine conjugates"}, "[7]": {"test_system": "Marinobacter sp. msLacBP6 187C mutants (variants of Table 7)", "assay": "Affinity summary of msLacBP6 187C affinity-tuning mutants", "conditions": "all mutants", "source_text": "In the PCS we mutated F68 (F98 in ttLacBP1) and D220 (D250 in ttLacBP1). […] It could therefore be considered part of a secondary complementary surface layer (SCS). In the interface we mutated L70 (L100 in ttLacBP1), which is located at the periphery of the lactate-binding site, and forms a contact from the N- to the C-terminal domain across the inter-domain interface.\nBoth PCS and SCS mutations perturbed the spectral shapes of the lactate-mediated responses. […] These affinity-tuned sensors therefore provide a suitable set for clinical chemistry applications."}, "[8]": {"test_system": "Marinobacter sp. msLacBP6 variant 187C, L70I, SEQ ID NO: 52, Acrylodan conjugate", "assay": "Fluorescence titration of conjugate (affinity tuning)", "design": "key to appKd (alanine): nb: no binding"}, "[9]": {"test_system": "Marinobacter sp. msLacBP6 variant 187C, D220E, SEQ ID NO: 56, Acrylodan conjugate", "assay": "Fluorescence titration of conjugate (affinity tuning)", "design": "key to appKd (alanine): nb: no binding"}, "[10]": {"test_system": "Marinobacter sp. msLacBP6 variant 187C, F68M, SEQ ID NO: 50, Badan conjugate", "assay": "Fluorescence titration of conjugate (affinity tuning)", "design": "key to appKd (alanine): nb: no binding"}}, "data": [{"smiles": "C[C@H](N)C(=O)O", "note": "[L-alanine]", "values": [{"measurement": "appKd (alanine)", "setting": "[1]", "value": "n/b"}, {"measurement": "appKd (alanine)", "setting": "[2]", "value": "n/b"}, {"measurement": "appKd (alanine)", "setting": "[3]", "value": "n/b"}, {"measurement": "appKd (alanine)", "setting": "[4]", "value": "n/b"}, {"measurement": "appKd (alanine)", "setting": "[5]", "value": "n/b"}, {"measurement": "binding to L-alanine", "setting": "[6]", "value": "no binding"}, {"measurement": "binding to L-alanine", "setting": "[7]", "value": "None of the mutants bound L-alanine"}, {"measurement": "appKd (alanine)", "setting": "[8]", "value": "n/b"}, {"measurement": "appKd (alanine)", "setting": "[9]", "value": "n/b"}, {"measurement": "appKd (alanine)", "setting": "[10]", "value": "n/b"}]}]}
